Results published in paper PMC11887051, “Discovery of ONO-2920632 (VU6011887): A Highly Selective and CNS Penetrant TREK-2 (TWIK-Related K+ Channel 2) Preferring Activator In Vivo Tool Compound” (ACS Chemical Neuroscience, 2025).
pEC50: −log10 of the molar value.

Assays:
TREK-1 = molecular target: T1, TREK-1 (Homo sapiens, UniProt O95069); experiment: TREK-1 thallium flux assay (hTREK-1/CHO); type: cell-based; set-up: host or cells: CHO; details: for Emax: % activation relative to 10 µM BL-1249
T1 sequence (O95069 1-426): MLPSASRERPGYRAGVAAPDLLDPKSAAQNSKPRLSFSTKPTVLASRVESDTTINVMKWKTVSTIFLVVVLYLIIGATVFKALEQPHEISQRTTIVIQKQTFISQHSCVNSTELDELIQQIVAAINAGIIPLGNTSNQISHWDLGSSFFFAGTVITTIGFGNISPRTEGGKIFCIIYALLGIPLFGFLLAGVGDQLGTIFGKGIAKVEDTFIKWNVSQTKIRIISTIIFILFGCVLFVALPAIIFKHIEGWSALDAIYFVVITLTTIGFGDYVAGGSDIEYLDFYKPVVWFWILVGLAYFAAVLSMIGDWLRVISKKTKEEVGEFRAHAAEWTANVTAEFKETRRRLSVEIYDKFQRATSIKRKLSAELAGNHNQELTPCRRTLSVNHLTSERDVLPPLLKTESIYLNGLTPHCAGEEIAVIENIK
Description: Procedures for Biological Experiments
TREK-1 and TREK-2 thallium flux assay protocol
CHO cells stably expressing human TREK-1 (hTREK-1/CHO) were constructed at Evotec. […]
hTREK-1/CHO or hTREK-2/HEK were plated in 384-well plates at a density of 1.0x10^4 cells/well or 2.0x10^4 cells/well, respectively, and cultured overnight. After the wash by HBSS + 20 mM HEPES buffer, cells were loaded with Thallos dye for 1 hour at room temperature. After the wash […]
dissolved with HBSS + 20mM HEPES buffer were added to each well. After 10 minutes incubation at room temperature, thallium stimulus buffer were added to each well and the fluorescent intensity are measured by Panoptic. The final thallium concentration was 0.36 mM in […]
TREK-1 or 0.24 mM in TREK-2, respectively. […]

[1] = rat plasma protein binding (equilibrium dialysis); type: in vitro ADME; details: pH 7.4, read-out: rat plasma fu
Description: In vitro Plasma protein binding and Brain homogenate binding: Determination of fraction unbound (f u) in plasma was conducted in vitro via equilibrium dialysis using HTDialysis (HTD) membrane plates. The top half of the plate was filled with 100 uL of Dubelco’s Phosphate Buffered Saline, pH 7.4 (DPBS). Compounds were diluted into plasma from each species (5 µM final concentration), which was aliquoted in triplicate to the ‘bottom half’ of the prepared HTD plate wells. The HTD plate was sealed and incubated for 6 hours at 37 °C. Following incubation, each well (both top and bottom halves) were transferred (20 µL) to the corresponding wells of a 96-shallow-well (V-bottom) plate. The daughter plates were then matrix-matched (DPBS side wells received equal volume of plasma, and plasma side wells received equal volume of DPBS), and extraction solution (120 µL; acetonitrile containing 50 nM carbamazepine as IS) was added to all wells of both daughter plates to precipitate protein and extract test article. The plates were then sealed and centrifuged (3500 rcf) for 10 minutes at ambient temperature. Supernatant (60 µL) from each well of the daughter plates was then transferred to the corresponding wells of new daughter plates (96-shallow-well, V bottom) containing water (Milli-Q, 60 µL/well), and the plates were sealed in preparation for LC-MS/MS analysis (see LC-MS/MS analysis method below).
The unbound fraction (f u) was calculated following the equation below, and mean values for each species were calculated from 3 replicates. […]
Fraction unbound for both plasma and brain samples was determined using Equation 4.
Equation 4 Determination of fraction unbound in plasma. […]

mouse TREK-2 = molecular target: T2, mouse TREK-2 (Mus musculus, UniProt Q8BUW1); experiment: mouse TREK-2 MPC assay; type: cell-based; details: for pEC50 / Emax: mouse, manual patch clamp; for TREK-2 preference (mouse MPC): TREK-2 over TREK-1, mouse MPC
T2 sequence (Q8BUW1 1-535): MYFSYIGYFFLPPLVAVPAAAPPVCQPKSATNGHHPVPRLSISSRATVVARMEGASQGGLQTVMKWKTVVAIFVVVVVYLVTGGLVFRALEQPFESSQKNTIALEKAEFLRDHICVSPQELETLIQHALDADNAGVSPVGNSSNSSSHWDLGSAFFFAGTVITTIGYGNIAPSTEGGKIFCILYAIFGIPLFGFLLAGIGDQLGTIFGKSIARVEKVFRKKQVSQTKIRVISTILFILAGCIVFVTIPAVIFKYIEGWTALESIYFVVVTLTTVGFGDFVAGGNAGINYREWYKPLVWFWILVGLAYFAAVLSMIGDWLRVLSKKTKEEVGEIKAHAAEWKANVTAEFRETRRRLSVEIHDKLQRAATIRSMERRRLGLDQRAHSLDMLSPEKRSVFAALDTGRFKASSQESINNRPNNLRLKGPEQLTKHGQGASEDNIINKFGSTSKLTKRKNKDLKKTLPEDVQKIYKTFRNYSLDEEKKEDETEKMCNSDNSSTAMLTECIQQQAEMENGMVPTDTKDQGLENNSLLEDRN

Molecule `CS(=O)(=O)Nc1ccc(C(=O)NCc2ccc(Cl)cc2Cl)cc1` [Compound 13] has a pEC50 (TREK-1) of 5.09, an Emax (TREK-1) of 85% and a fraction unbound at 6 h, 5 µM [1] of 0.027.
In the case of `O=C(NCc1ccc(Br)cc1Cl)c1ccc(-c2ncn[nH]2)cc1` [Compound 14a], the pEC50 (TREK-1) was 5.80, the Emax (TREK-1) was 93% and the pEC50 (mouse TREK-2) was 6.21. It also gave an Emax (mouse TREK-2) of 97%.
Work on `Cc1cc(OC(F)(F)F)ccc1CNC(=O)c1ccc2ncnn2c1` [Compound 19a] yielded a pEC50 (TREK-1) of 5.42, an Emax (TREK-1) of 99% and a fraction unbound at 6 h, 5 µM [1] of 0.075. The “TREK-2 preference (mouse MPC)” value (mouse TREK-2) was 33 fold, the pEC50 (mouse TREK-2) was 6.82 and the Emax (mouse TREK-2) was 105%.
`O=C(NCc1ccc(OC(F)(F)F)cc1F)c1ccc2ncnn2c1` [Compound 19b] gave a pEC50 (TREK-1) of 5.55, an Emax (TREK-1) of 95% and a fraction unbound at 6 h, 5 µM [1] of 0.075. For the same molecule, the “TREK-2 preference (mouse MPC)” value (mouse TREK-2) was 4.7 fold, the pEC50 (mouse TREK-2) was 6.24 and the Emax (mouse TREK-2) was 105%.
